Source: the NIST ThermoML archive (doi:10.1016/j.fluid.2018.05.028)
± gives the expanded uncertainty stated by the source.

Test: xn = mol fraction of the nth substance listed
Conditions: 101 kPa, Liquid; for viscosity: Concentric cylinders viscometry; for speed of sound: Single path-length method; for mass density: Vibrating tube method

CCCCCCCCCCCCCCCC [hexadecane] + CCCO
viscosity (293.15 K, x2 = 0): 3.408 ± 0.023 mPa·s
viscosity (293.15 K, x2 = 0.1): 3.214 ± 0.021 mPa·s
viscosity (293.15 K, x2 = 0.2): 3.093 ± 0.02 mPa·s
viscosity (293.15 K, x2 = 0.3): 2.99 ± 0.019 mPa·s
viscosity (293.15 K, x2 = 0.4): 2.916 ± 0.018 mPa·s
viscosity (293.15 K, x2 = 0.5): 2.845 ± 0.017 mPa·s
viscosity (293.15 K, x2 = 0.6): 2.776 ± 0.017 mPa·s
viscosity (293.15 K, x2 = 0.7): 2.671 ± 0.016 mPa·s
viscosity (293.15 K, x2 = 0.8): 2.541 ± 0.015 mPa·s
viscosity (293.15 K, x2 = 0.9): 2.388 ± 0.014 mPa·s
speed of sound (293.15 K, x2 = 0): 1357.4 ± 1 m/s
speed of sound (293.15 K, x2 = 0.1): 1349.3 ± 0.96 m/s
speed of sound (293.15 K, x2 = 0.2): 1342.3 ± 0.91 m/s
speed of sound (293.15 K, x2 = 0.3): 1334.9 ± 0.86 m/s
speed of sound (293.15 K, x2 = 0.4): 1326.8 ± 0.81 m/s
speed of sound (293.15 K, x2 = 0.5): 1317.5 ± 0.76 m/s
speed of sound (293.15 K, x2 = 0.6): 1306.4 ± 0.71 m/s
speed of sound (293.15 K, x2 = 0.7): 1293.2 ± 0.66 m/s
speed of sound (293.15 K, x2 = 0.8): 1275.7 ± 0.62 m/s
speed of sound (293.15 K, x2 = 0.9): 1252.8 ± 0.57 m/s
mass density (293.15 K, x2 = 0): 773.35 ± 0.83 kg/m3
mass density (293.15 K, x2 = 0.1): 773.48 ± 0.83 kg/m3
mass density (293.15 K, x2 = 0.2): 774.05 ± 0.82 kg/m3
mass density (293.15 K, x2 = 0.3): 774.88 ± 0.82 kg/m3
mass density (293.15 K, x2 = 0.4): 776.01 ± 0.82 kg/m3
mass density (293.15 K, x2 = 0.5): 777.51 ± 0.82 kg/m3
mass density (293.15 K, x2 = 0.6): 779.56 ± 0.82 kg/m3
mass density (293.15 K, x2 = 0.7): 782.34 ± 0.81 kg/m3
mass density (293.15 K, x2 = 0.8): 786.35 ± 0.81 kg/m3
mass density (293.15 K, x2 = 0.9): 792.43 ± 0.81 kg/m3
viscosity (298.15 K, x2 = 0): 3.035 ± 0.021 mPa·s
viscosity (298.15 K, x2 = 0.1): 2.858 ± 0.019 mPa·s
viscosity (298.15 K, x2 = 0.2): 2.754 ± 0.018 mPa·s
viscosity (298.15 K, x2 = 0.3): 2.665 ± 0.017 mPa·s
viscosity (298.15 K, x2 = 0.4): 2.596 ± 0.017 mPa·s
viscosity (298.15 K, x2 = 0.5): 2.526 ± 0.016 mPa·s
viscosity (298.15 K, x2 = 0.6): 2.463 ± 0.015 mPa·s
viscosity (298.15 K, x2 = 0.7): 2.374 ± 0.015 mPa·s
viscosity (298.15 K, x2 = 0.8): 2.264 ± 0.014 mPa·s
viscosity (298.15 K, x2 = 0.9): 2.131 ± 0.013 mPa·s
speed of sound (298.15 K, x2 = 0): 1338.5 ± 1 m/s
speed of sound (298.15 K, x2 = 0.1): 1330.3 ± 0.96 m/s
speed of sound (298.15 K, x2 = 0.2): 1323.2 ± 0.91 m/s
speed of sound (298.15 K, x2 = 0.3): 1315.8 ± 0.86 m/s
speed of sound (298.15 K, x2 = 0.4): 1307.7 ± 0.81 m/s
speed of sound (298.15 K, x2 = 0.5): 1298.5 ± 0.76 m/s
speed of sound (298.15 K, x2 = 0.6): 1287.5 ± 0.71 m/s
speed of sound (298.15 K, x2 = 0.7): 1274.5 ± 0.66 m/s
speed of sound (298.15 K, x2 = 0.8): 1257.4 ± 0.62 m/s
speed of sound (298.15 K, x2 = 0.9): 1234.9 ± 0.57 m/s
mass density (298.15 K, x2 = 0): 769.87 ± 0.83 kg/m3
mass density (298.15 K, x2 = 0.1): 769.92 ± 0.83 kg/m3
mass density (298.15 K, x2 = 0.2): 770.46 ± 0.82 kg/m3
mass density (298.15 K, x2 = 0.3): 771.25 ± 0.82 kg/m3
mass density (298.15 K, x2 = 0.4): 772.34 ± 0.82 kg/m3
mass density (298.15 K, x2 = 0.5): 773.81 ± 0.82 kg/m3
mass density (298.15 K, x2 = 0.6): 775.81 ± 0.82 kg/m3
mass density (298.15 K, x2 = 0.7): 778.55 ± 0.81 kg/m3
mass density (298.15 K, x2 = 0.8): 782.5 ± 0.81 kg/m3
mass density (298.15 K, x2 = 0.9): 788.52 ± 0.81 kg/m3
viscosity (303.15 K, x2 = 0): 2.708 ± 0.019 mPa·s
viscosity (303.15 K, x2 = 0.1): 2.55 ± 0.018 mPa·s
viscosity (303.15 K, x2 = 0.2): 2.45 ± 0.017 mPa·s
viscosity (303.15 K, x2 = 0.3): 2.376 ± 0.016 mPa·s
viscosity (303.15 K, x2 = 0.4): 2.314 ± 0.015 mPa·s
viscosity (303.15 K, x2 = 0.5): 2.244 ± 0.015 mPa·s
viscosity (303.15 K, x2 = 0.6): 2.187 ± 0.014 mPa·s
viscosity (303.15 K, x2 = 0.7): 2.108 ± 0.014 mPa·s
viscosity (303.15 K, x2 = 0.8): 2.012 ± 0.013 mPa·s
viscosity (303.15 K, x2 = 0.9): 1.89 ± 0.013 mPa·s
speed of sound (303.15 K, x2 = 0): 1319.8 ± 1 m/s
speed of sound (303.15 K, x2 = 0.1): 1311.4 ± 0.96 m/s
speed of sound (303.15 K, x2 = 0.2): 1304.3 ± 0.91 m/s
speed of sound (303.15 K, x2 = 0.3): 1296.9 ± 0.86 m/s
speed of sound (303.15 K, x2 = 0.4): 1288.8 ± 0.81 m/s
speed of sound (303.15 K, x2 = 0.5): 1279.7 ± 0.76 m/s
speed of sound (303.15 K, x2 = 0.6): 1268.8 ± 0.71 m/s
speed of sound (303.15 K, x2 = 0.7): 1256 ± 0.66 m/s
speed of sound (303.15 K, x2 = 0.8): 1239.2 ± 0.62 m/s
speed of sound (303.15 K, x2 = 0.9): 1217.2 ± 0.57 m/s
mass density (303.15 K, x2 = 0): 766.4 ± 0.83 kg/m3
mass density (303.15 K, x2 = 0.1): 766.38 ± 0.83 kg/m3
